Key:
[1] = test system: α1β3γ2L GABAA receptors, bulky mutation at β3M286; parameters: method as in PMID 30696720; key: +: Mutant-function studies are deemed positive when bulky mutations (mostly tryptophans) at the site significantly reduce positive modulation by anesthetics; -: Negative results are indicated by “–“ symbols; details: cited from earlier work
[2] = test system: α1β3γ2L GABAA receptors, bulky mutation at γ2L246; parameters: key: +: Mutant-function studies are deemed positive when bulky mutations (mostly tryptophans) at the site significantly reduce positive modulation by anesthetics; -: Negative results are indicated by “–“ symbols; details: cited from earlier work
[3] = biological target: T1, α1M236Cβ3γ2L GABAA receptors (Homo sapiens, UniProt P14867+P18507+P28472, M263C); assay: Drug protection from pCMBS modification (SCAMP); assay type: cell-based; parameters: key: +: Mutant-function studies are deemed positive when bulky mutations (mostly tryptophans) at the site significantly reduce positive modulation by anesthetics; -: Negative results are indicated by “–“ symbols; details: results of this study (*); some cells also cite [9]
T1 construct: expressed in transfected cells; host or cells: Xenopus oocytes injected with capped mRNA, 1α:1β:5γ
T1 sequence (P14867 28-456 M263C): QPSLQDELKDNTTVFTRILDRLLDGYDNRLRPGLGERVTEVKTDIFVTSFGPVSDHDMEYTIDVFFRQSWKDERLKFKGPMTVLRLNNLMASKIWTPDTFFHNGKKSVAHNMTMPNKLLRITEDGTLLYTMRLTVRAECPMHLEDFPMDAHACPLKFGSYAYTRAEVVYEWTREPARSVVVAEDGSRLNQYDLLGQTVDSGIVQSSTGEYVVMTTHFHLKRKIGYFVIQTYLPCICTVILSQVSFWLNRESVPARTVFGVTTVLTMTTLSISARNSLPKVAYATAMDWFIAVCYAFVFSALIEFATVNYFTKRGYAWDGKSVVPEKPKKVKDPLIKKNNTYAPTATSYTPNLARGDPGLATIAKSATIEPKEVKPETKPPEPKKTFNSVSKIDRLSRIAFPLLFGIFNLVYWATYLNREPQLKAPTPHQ
T1 sequence (P28472 26-473): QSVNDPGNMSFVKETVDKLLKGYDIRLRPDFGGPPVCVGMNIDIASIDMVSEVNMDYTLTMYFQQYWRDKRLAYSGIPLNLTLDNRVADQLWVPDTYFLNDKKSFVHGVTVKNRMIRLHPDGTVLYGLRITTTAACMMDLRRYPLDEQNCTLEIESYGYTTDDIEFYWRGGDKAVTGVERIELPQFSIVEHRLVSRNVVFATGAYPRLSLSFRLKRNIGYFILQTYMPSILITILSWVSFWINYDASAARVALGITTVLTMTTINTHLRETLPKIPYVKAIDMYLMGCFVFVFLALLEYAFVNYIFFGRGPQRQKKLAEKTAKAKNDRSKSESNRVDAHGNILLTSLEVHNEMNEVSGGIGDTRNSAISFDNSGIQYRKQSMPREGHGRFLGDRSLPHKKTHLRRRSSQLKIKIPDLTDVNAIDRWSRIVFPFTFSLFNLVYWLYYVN
T1 sequence (P18507 40-475): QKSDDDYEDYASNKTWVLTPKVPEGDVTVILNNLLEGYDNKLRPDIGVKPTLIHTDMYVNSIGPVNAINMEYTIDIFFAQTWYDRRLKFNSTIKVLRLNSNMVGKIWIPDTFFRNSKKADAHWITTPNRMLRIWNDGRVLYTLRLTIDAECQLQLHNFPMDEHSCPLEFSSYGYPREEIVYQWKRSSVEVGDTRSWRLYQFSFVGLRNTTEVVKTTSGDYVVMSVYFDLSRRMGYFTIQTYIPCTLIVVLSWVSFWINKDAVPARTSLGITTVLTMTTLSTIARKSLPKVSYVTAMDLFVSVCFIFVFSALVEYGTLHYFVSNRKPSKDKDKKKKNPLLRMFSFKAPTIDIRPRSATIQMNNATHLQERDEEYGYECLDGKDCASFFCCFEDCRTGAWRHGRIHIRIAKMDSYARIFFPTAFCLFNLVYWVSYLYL
Experimental: (§1) Experiments were performed in ND-96 buffer at room temperature (20–22°C). Oocytes were placed in a low-volume (30µl) flow chamber and impaled with borosilicate microelectrodes filled with 3M KCl (resistance 0.5–3 MΩ) and voltage-clamped at −50 mV (model OC-725C; Warner Instruments, Hamden, CT, USA). Superfusate solutions in ND-96 were delivered at 2 ml/min from glass syringe reservoirs via computer-controlled valves (VC-8; Warner Instruments), a micro-manifold (ALA-VM8; ALA Scientific Instruments, Farmingdale, NY, USA), and PTFE tubing. Currents were digitized at 200 Hz on a computer running ClampEx v8.0 software (Molecular Devices, San Jose, CA, USA). Digitized traces were filtered with a 10-Hz low-pass Bessel function, leak corrected and analyzed for peak amplitude off-line using Clampfit v8 software (Molecular Devices).
(§2) Drug protection from pCMBS modification was assessed under pCMBS exposure conditions that produced approximately half of the maximal modification ratio for each mutant receptor, and a least a value of 3. This approach balanced the magnitude of functional modification signals (smaller with less pCMBS exposure) against the challenge of using a reversibly bound ligand to competitively block an irreversible covalent cysteine-modifying reaction. […] Each oocyte was used in a single SCAMP experiment. […] Etomidate was used as a positive control for anesthetic protection in α1M236C and β3M286C mutants and as a negative control in α1S270C, α1A291C, β3L231C, γ2S301C, γ2I242C, and γ2L246C mutants. R-mTFD-MPAB was used as a positive control in α1S270C, α1A291C, β3L231C, and γ2LS301C mutants and as a negative control in α1M236C and β3M286C mutants. For each cysteine mutant and protective drug combination, five oocytes were studied.
(§3) Non-linear least squares fits and statistical analyses were performed in Prism 10.4.0. (GraphPad Software, San Diego, CA, USA). […] Protection (steric inhibition of pCMBS modification) was inferred when anesthetics produced significant reductions in modification ratios relative to control (no anesthetic) values. The statistical significance threshold was p < 0.05.

[4] = biological target: T2, α1β3γ2I242C GABAA receptors (Homo sapiens, UniProt P14867+P18507+P28472, I281C); assay: Drug protection from pCMBS modification (SCAMP); assay type: cell-based; parameters: key to SCAMP result, γ2– (M1) I242: +: Mutant-function studies are deemed positive when bulky mutations (mostly tryptophans) at the site significantly reduce positive modulation by anesthetics; -: Negative results are indicated by “–“ symbols; details: for SCAMP result, γ2– (M1) I242: results of this study, etomidate cell also cites [9]
T2 construct: expressed in transfected cells; host or cells: Xenopus oocytes injected with capped mRNAs mixed 1α:1β:5γ
T2 sequence (P14867 28-456): as the sequence (P14867 28-456 M263C) above, with C236M counted along it
T2 sequence (P28472 26-473): as the sequence (P28472 26-473) above
T2 sequence (P18507 40-475 I281C): as the sequence (P18507 40-475) above, with I242C counted along it
Experimental: as §1, §2
as §3, with “The statistical significance threshold was p < 0.05.” left out

| SMILES | Mutant-function result, β3+ (M2, M3) M286 [1] | Mutant-function result, γ2– (M1) L246 [2] | SCAMP result, α1– (M1) M236 [3] | SCAMP result, γ2– (M1) I242 [4] | protection from pCMBS modification (significant reduction of modification ratio vs control, p < 0.05) ([4]; γ2I242C (γ–), pCMBS 100 µM x 30 s, […] etomidate or 10 µM pTFD-di-iPr-BnOH, n = 5) |
| --- | --- | --- | --- | --- | --- |
| C=CCC1(c2cccc(C3(C(F)(F)F)N=N3)c2)C(=O)NC(=O)N(C)C1=O (stereo not drawn) [R-mTFD-MPAB, R-5-allyl-1-methyl-5-(m-trifluoromethyl-diazirynylphenyl) barbituric acid] | -^[13] | -^[9] | -^[9], * |  |  |
| CCOC(=O)c1cncn1[C@H](C)c1ccccc1 [etomidate, R-etomidate] | +^[13] | -^[9] |  | -^[9],6 | no protection was inferred |
| CC(C)c1cc(C2(C(F)(F)F)N=N2)cc(C(C)C)c1CO [pTFD-di-iPr-BnOH] |  |  | -* | -* |  |

Reference: publication PMC12591484 (PLOS One, 2025)
